{"source": "patent US5180746A", "about": "“Aralkylamine compounds” (priority 1989, dated 1993)", "note": "Where a name gives a salt, the structure may show the parent alone.", "data": [{"target": "T1, cholinesterase (Rattus norvegicus, UniProt P37136)", "T1 construct": "The S1 fraction of a cerebral cortex homogenate from male Wistar rats; from tissue; host or cells: cerebral cortex homogenate (S1 fraction), male Wistar rats", "T1 sequence (P37136 32-614)": "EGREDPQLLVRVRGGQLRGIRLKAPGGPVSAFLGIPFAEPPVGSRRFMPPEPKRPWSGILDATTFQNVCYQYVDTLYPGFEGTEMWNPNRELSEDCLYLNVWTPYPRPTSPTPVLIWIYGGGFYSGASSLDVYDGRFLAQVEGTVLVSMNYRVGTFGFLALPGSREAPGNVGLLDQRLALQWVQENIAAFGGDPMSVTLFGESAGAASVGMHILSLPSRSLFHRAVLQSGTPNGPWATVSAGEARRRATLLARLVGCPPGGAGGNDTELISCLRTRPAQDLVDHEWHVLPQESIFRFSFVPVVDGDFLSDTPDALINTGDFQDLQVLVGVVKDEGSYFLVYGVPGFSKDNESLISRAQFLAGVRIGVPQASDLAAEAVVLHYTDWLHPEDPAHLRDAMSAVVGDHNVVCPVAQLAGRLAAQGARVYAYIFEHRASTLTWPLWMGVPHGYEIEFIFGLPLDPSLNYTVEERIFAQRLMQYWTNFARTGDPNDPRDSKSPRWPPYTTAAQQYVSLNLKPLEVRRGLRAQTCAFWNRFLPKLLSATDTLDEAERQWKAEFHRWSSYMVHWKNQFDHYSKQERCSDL", "assay": "anticholinesterase activity using (acetyl-[3H])-acetylcholine, S1 fraction of rat cerebral cortex homogenate", "format": "biochemical, male Wistar rats", "details": "(acetyl-[3H])-acetylcholine substrate, 30 minutes incubation", "units": {"IC50": "nM"}, "procedure": "The anticholinesterase activity of the compound of the invention was evaluated using (acetyl-[^3 H])-acetylcholine. The S1 fraction of a cerebral cortex homogenate from male Wistar rats was used as the cholinesterase source, (acetyl-[^3 H])-acetylcholine as the substrate and the test compound of the invention as the test substance. The incubation was carried out for 30 minutes and after the reaction was terminated, the system was shaken with a toluene scintillator to thereby transfer [^3 H]-acetic acid into the toluene layer. The radioactivity in the toluene layer was then measured with a liquid scintillation counter to estimate the anticholinesterase activity of the test compound.\nThe anticholinesterase activity of the test compound was expressed in 50% inhibitory concentration (IC50).", "values": [{"compound": "CCN(CCCC1Cc2cc(OC)c(OC)cc2C1=O)Cc1cccc(O)c1", "note": "(stereo not shown) [Example 3-13]", "IC50": 210}, {"compound": "CCN(CCCCCCC1Cc2cc(OC)c(OC)cc2C1=O)Cc1ccccc1OC", "note": "(stereo not shown) [Example 3-15]", "IC50": 100}, {"compound": "CCN(CCCCC1Cc2cc(N3CCCC3)ccc2C1=O)Cc1ccccc1OC", "note": "(stereo not shown) [Example 8, 2-[4-[N-Ethyl-N-[(2-methoxyphenyl)methyl]amino]butyl]-5-pyrrolidino-1-indanone fumarate]", "IC50": 81}, {"compound": "CCN(CCCCC1Cc2cc(OC)c(OC)cc2C1=O)Cc1ccccc1OC", "note": "(stereo not shown) [Example 3-7]", "IC50": 27}, {"compound": "CCN(CCCCC1Cc2cc(OC)c(OC)cc2C1=O)Cc1cccc(O)c1", "note": "(stereo not shown) [Example 3-14]", "IC50": 630}, {"compound": "CCN(CCCCCC1CCc2cc(OC)ccc2C1=O)Cc1ccccc1OC", "note": "(stereo not shown) [Example 3-12]", "IC50": 130}, {"compound": "CCN(CCCCC1Cc2cc(OC)ccc2C1=O)Cc1ccccc1OC", "note": "(stereo not shown) [Example 3-10]", "IC50": 110}, {"compound": "CCN(CCCCCC1Cc2cc(OC)c(OC)cc2C1=O)Cc1ccccc1", "note": "(stereo not shown) [Example 3-1]", "IC50": 120}, {"compound": "CCN(CCCCC1Cc2cc(OC)c(OC)cc2C1=O)Cc1ccccc1", "note": "(stereo not shown) [Example 3-3]", "IC50": 76}, {"compound": "CCN(CCCCC1Cc2cc(N3CCCC3)ccc2C1=O)Cc1ccccc1", "note": "(stereo not shown) [Example 7, 2-[4-[N-Ethyl-N-(phenylmethyl)amino]butyl]-5-pyrrolidino-1-indanone fumarate]", "IC50": 143}, {"compound": "CCN(CCCC1Cc2cc(OC)c(OC)cc2C1=O)Cc1ccccc1OC", "note": "(stereo not shown) [Example 3-6]", "IC50": 14}, {"compound": "CCN(CCCCCC1=Cc2cc(OC)c(OC)cc2C1)Cc1ccccc1OC", "note": "[Example 5, 5,6-Dimethoxy-2-[5-[N-ethyl-N-[(2-methoxyphenyl)methyl]amino]pentyl]indene hydrochloride]", "IC50": 600}, {"compound": "CCN(CCCC1Cc2cc(OC)c(OC)cc2C1=O)Cc1ccccc1OC", "note": "(stereo not shown) [Example 3-4]", "IC50": 11}, {"compound": "CCN(CCCCC1Cc2cc(OC)c(OC)cc2C1=O)Cc1cccc(OC)c1", "note": "(stereo not shown) [Example 3-8]", "IC50": 110}, {"compound": "CCN(CCC1Cc2cc(OC)c(OC)cc2C1=O)Cc1ccccc1OC", "note": "(stereo not shown) [Example 3-5]", "IC50": 680}, {"compound": "CCN(CCCCC1Cc2cc3c(cc2C1=O)OCO3)Cc1ccccc1OC", "note": "(stereo not shown) [Example 3-11]", "IC50": 170}, {"compound": "CCN(CCCCCC1Cc2cc(OC)c(OC)cc2C1O)Cc1ccccc1OC", "note": "(stereo not shown) [Example 4, 1,2-Dihydro-5,6-dimethoxy-2-[5-[N-ethyl-N-[(2-methoxyphenyl)methyl]amino]pentyl]-1-hydroxyindene]", "IC50": 160}, {"compound": "CCN(CCCCC1Cc2cc(OC)c(OC)c(OC)c2C1=O)Cc1ccccc1OC", "note": "(stereo not shown) [Example 3-9]", "IC50": 90}, {"compound": "CCN(CCCCC1Cc2cc(OC)c(OC)cc2C1=O)Cc1ccccc1OC", "note": "(stereo not shown) [Example 3-2]", "IC50": 20}]}]}
